Some results are limits rather than exact numbers.

The target of this assay is T1, recombinant human cGAS (aa147-522) (Homo sapiens, UniProt Q8N884).
T1 construct: recombinant human cGAS (aa147-522); His6-SUMO (cleaved yes); made in house; host or cells: E. coli BL21/pLys
Kind of assay: In vitro inhibition assay of cGAS activity (ATP consumption, KinaseGlo Max). The assay is classed as biochemical. The conditions noted are these: Table 3, read-out: cGAS Inhibition Results IC50. The procedure, abridged: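 De-tagged recombinant human cGAS (aa147-522, 1.5 μg/mL) was incubated 20 min at 37 °C with herring testis DNA, 6.6 μM ATP and 0.1 mM GTP in Tris pH 7.5/MgCl2 buffer plus serial compound dilutions. Remaining ATP was read by KinaseGlo Max luminescence, and IC50 was fitted from % ATP consumption versus log concentration.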

T1 sequence (Q8N884 147-522): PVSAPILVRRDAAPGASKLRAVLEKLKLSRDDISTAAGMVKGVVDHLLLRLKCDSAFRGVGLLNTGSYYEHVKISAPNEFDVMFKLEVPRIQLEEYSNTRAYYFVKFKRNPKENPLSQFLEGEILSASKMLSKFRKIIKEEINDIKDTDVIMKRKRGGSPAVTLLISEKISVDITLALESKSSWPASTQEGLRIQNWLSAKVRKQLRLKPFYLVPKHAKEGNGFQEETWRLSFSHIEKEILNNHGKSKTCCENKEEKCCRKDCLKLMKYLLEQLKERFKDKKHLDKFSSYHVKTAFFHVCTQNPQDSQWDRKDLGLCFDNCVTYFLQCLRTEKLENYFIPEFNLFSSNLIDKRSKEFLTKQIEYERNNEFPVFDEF

Consider `O=C(O)C1CCCN(C(=O)C[C@@H]2CCCN2c2cc(-n3ccnc3)c3ccc(Cl)c(Cl)c3n2)C1` (some centres unmarked) [I-530], for which the IC50 (as a rule, the midpoint of a concentration-inhibition curve) is below 2 µM.
The result for `COC(=O)CNC(=O)C[C@@H]1CCCN1c1cc(-n2ccnc2)c2ccc(Cl)c(Cl)c2n1` [I-531] reads below 2 µM; that for `O=C(O)C1CCCCN1C(=O)C[C@@H]1CCCN1c1cc(-n2ccnc2)c2ccc(Cl)c(Cl)c2n1` (some centres unmarked) [I-533], below 2 µM; that for `NS(=O)(=O)CC1CCCN1C(=O)C[C@@H]1CCCN1c1cc(-n2ccnc2)c2ccc(Cl)c(Cl)c2n1` (some centres unmarked) [I-534], 2 to 30 µM.
Take `COC(=O)C1CCCN(C(=O)C[C@@H]2CCCN2c2cc(-n3ccnc3)c3ccc(Cl)c(Cl)c3n2)C1` (some centres unmarked) [I-535]: the IC50 was in the range of 2 to 30 µM.
The result for `O=C(C[C@@H]1CCCN1c1cc(-n2ccnc2)c2ccc(Cl)c(Cl)c2n1)N1CCC(c2nnn[nH]2)C1` (some centres unmarked) [I-536] reads below 2 µM; that for `NS(=O)(=O)C1CCN(C(=O)C[C@@H]2CCCN2c2cc(-n3ccnc3)c3ccc(Cl)c(Cl)c3n2)C1` (some centres unmarked) [I-537], 2 to 30 µM.
The result for `O=C(O)C1CN(C(=O)C[C@@H]2CCCN2c2cc(-n3ccnc3)c3ccc(Cl)c(Cl)c3n2)CCO1` (some centres unmarked) [I-538] reads below 2 µM; that for `O=C(C[C@@H]1CCCN1c1cc(-n2ccnc2)c2ccc(Cl)c(Cl)c2n1)NS(=O)(=O)C(F)F` [I-540], below 2 µM; that for `O=C(C[C@@H]1CCCN1c1cc(-n2ccnc2)c2ccc(Cl)c(Cl)c2n1)NC1CCNC1=O` (some centres unmarked) [I-541], below 2 µM.
On to `CON(C)C(=O)[C@@H]1CCCN1c1cc(-n2ccnc2)c2ccc(Cl)c(Cl)c2n1` [I-542], for which the IC50 was in the range of 2 to 30 µM.
The result for `O=C(C[C@@H]1CCCN1c1cc(-n2ccnc2)c2ccc(Cl)c(Cl)c2n1)NCCC(O)(C(F)(F)F)C(F)(F)F` [I-543] reads 2 to 30 µM; that for `O=C(C[C@@H]1CCCN1c1cc(-n2ccnc2)c2ccc(Cl)c(Cl)c2n1)NC1CCCNC1=O` (some centres unmarked) [I-544], 2 to 30 µM; that for `O=C(NS(=O)(=O)C(F)F)[C@@H]1CCCN1c1cc(-n2ccnc2)c2ccc(Cl)c(Cl)c2n1` [I-545], below 2 µM.
For `O=C(O)C1CCCN(C(=O)[C@@H]2CCCN2c2cc(-n3ccnc3)c3ccc(Cl)c(Cl)c3n2)C1` (some centres unmarked) [I-546], the IC50 was 2 to 30 µM.
Take `O=C(O)C1CCCCN1C(=O)[C@@H]1CCCN1c1cc(-n2ccnc2)c2ccc(Cl)c(Cl)c2n1` (some centres unmarked) [I-547]: the IC50 fell in the range of 2 to 30 µM.
As for `O=C(O)C1CCN(C(=O)[C@@H]2CCCN2c2cc(-n3ccnc3)c3ccc(Cl)c(Cl)c3n2)CC1` [I-548], the figure is below 2 µM; as for `O=C(O)C1CN(C(=O)[C@@H]2CCCN2c2cc(-n3ccnc3)c3ccc(Cl)c(Cl)c3n2)CCO1` (some centres unmarked) [I-549], below 2 µM.
For `CC(C)[C@H](NC(=O)[C@@H]1CCCN1c1cc(-n2ccnc2)c2ccc(Cl)c(Cl)c2n1)C(=O)O` [I-550], the IC50 lay in the range of 2 to 30 µM.
`O=C(NC12CC(C(=O)O)(C1)C2)[C@@H]1CCCN1c1cc(-n2ccnc2)c2ccc(Cl)c(Cl)c2n1` [I-551]: the IC50 was above 30 µM.
As for `O=C(O)[C@@H]1CCCN1C(=O)[C@@H]1CCCN1c1cc(-n2ccnc2)c2ccc(Cl)c(Cl)c2n1` [I-552], the figure is below 2 µM; as for `O=C(O)C[C@@H]1CCCN1C(=O)[C@@H]1CCCN1c1cc(-n2ccnc2)c2ccc(Cl)c(Cl)c2n1` [I-553], below 2 µM.
Regarding `NC(=O)CCNC(=O)[C@@H]1CCCN1c1cc(-n2ccnc2)c2ccc(Cl)c(Cl)c2n1` [I-554], the IC50 is 2 to 30 µM.
As for `O=C(O)CCNC(=O)[C@@H]1CN(c2cc(-n3ccnc3)c3ccc(Cl)c(Cl)c3n2)CCO1` [I-555], the concentration for half-maximal inhibition (IC50) is below 2 µM.
Consider `NC(=O)[C@@H]1[C@@H](O)CCN1c1cc(-n2ccnc2)c2ccc(Cl)c(Cl)c2n1` [I-557], for which the IC50 is below 2 µM.
Consider `O=C(NO)[C@@H]1[C@@H](O)CCN1c1cc(-n2ccnc2)c2ccc(Cl)c(Cl)c2n1` [I-558], for which the IC50 is below 2 µM.
As for `CO[C@@H]1CCN(c2cc(-n3ccnc3)c3ccc(Cl)c(Cl)c3n2)[C@@H]1C(=O)O` [I-559], the figure is below 2 µM.
`CO[C@H]1CCN(c2cc(-n3ccnc3)c3ccc(Cl)c(Cl)c3n2)[C@@H]1C(=O)O` [I-560]: the IC50 is below 2 µM.
In the case of `O=C(O)CO[C@@H]1CCN(c2cc(-n3ccnc3)c3ccc(Cl)c(Cl)c3n2)[C@@H]1C(=O)O` [I-561], the IC50 was below 2 µM.
The result for `CN(CC(=O)NCCC(=O)O)c1cc(-n2ccnc2)c2ccc(Cl)c(Cl)c2n1` [I-562] reads below 2 µM.
As for `C[C@@H](NC(=O)CCN(C)c1cc(-n2ccnc2)c2ccc(Cl)c(Cl)c2n1)C(=O)O` [I-563], the figure is below 2 µM.
As for `CN(CCC(=O)O)C(=O)CCN(C)c1cc(-n2ccnc2)c2ccc(Cl)c(Cl)c2n1` [I-564], the figure is below 2 µM.
For the compound `C[C@H](NC(=O)CCN(C)c1cc(-n2ccnc2)c2ccc(Cl)c(Cl)c2n1)C(=O)O` [I-565], the concentration for half-maximal inhibition (IC50) was below 2 µM.
As for `CN(CCC(=O)N1CCC(S(N)(=O)=O)C1)c1cc(-n2ccnc2)c2ccc(Cl)c(Cl)c2n1` (centres unmarked) [I-566], the figure is below 2 µM; as for `CN(CCC(=O)NCCS(N)(=O)=O)c1cc(-n2ccnc2)c2ccc(Cl)c(Cl)c2n1` [I-567], below 2 µM.
The result for `CN(CC(=O)NCCC(N)=O)c1cc(-n2ccnc2)c2ccc(Cl)c(Cl)c2n1` [I-568] reads 2 to 30 µM.
The result for `O=C(O)CNC(=O)O[C@H]1C[C@@H](C(=O)O)N(c2cc(-n3ccnc3)c3ccc(Cl)c(Cl)c3c2)C1` [I-570, (2S,4S)-4-(((carboxymethyl)carbamoyl)oxy)-1-(7,8-dichloro-4-(1H-imidazol-1-yl)naphthalen-2-yl)pyrrolidine-2-carboxylic acid] reads 2 to 30 µM; that for `O=C(O)[C@@H]1C[C@H](OC(=O)N2CCOCC2)CN1c1cc(-n2ccnc2)c2ccc(Cl)c(Cl)c2n1` [I-571], below 2 µM; that for `COC(=O)C[C@@H]1CCCN1c1cc(-n2ccnc2)c2ccc(Cl)c(Cl)c2c1` [I-572, methyl (S)-2-(1-(7,8-dichloro-4-(1H-imidazol-1-yl)naphthalen-2-yl)pyrrolidin-2-yl)acetate], below 2 µM.
For the compound `CC(C)(C)OC(=O)C[C@@H]1CCCN1c1cc(-n2ccnc2)c2ccc(Cl)c(Cl)c2n1` [I-573], the IC50 fell in the range of 2 to 30 µM.
In the case of `COC(=O)[C@@H]1CC[C@H](C)N1c1cc(-n2ccnc2)c2ccc(Cl)c(Cl)c2n1` [I-574], the IC50 was in the range of 2 to 30 µM.
On to `COC(=O)C12CC(CN1c1cc(-n3ccnc3)c3ccc(Cl)c(Cl)c3n1)C2` [I-579], for which the IC50 is above 30 µM.
The result for `COC(=O)C12CC(C)(CN1c1cc(-n3ccnc3)c3ccc(Cl)c(Cl)c3n1)C2` [I-580] reads above 30 µM.
As for `COC(=O)[C@@H]1Cc2ccccc2N1c1cc(-n2ccnc2)c2ccc(Cl)c(Cl)c2n1` [I-581], the figure is 2 to 30 µM; as for `COC(=O)C1N(c2cc(-n3ccnc3)c3ccc(Cl)c(Cl)c3n2)CCC1(C)C` (centres unmarked) [I-587], 2 to 30 µM; as for `COC(=O)[C@@H]1c2ccccc2CN1c1cc(-n2ccnc2)c2ccc(Cl)c(Cl)c2n1` [I-588], below 2 µM.
The result for `COC(=O)[C@@H]1C[C@@H](N)CN1c1cc(-n2ccnc2)c2ccc(Cl)c(Cl)c2n1` [I-589] reads 2 to 30 µM.
`COC(=O)[C@@H]1[C@@H](C)CCN1c1cc(-n2ccnc2)c2ccc(Cl)c(Cl)c2n1` [I-590]: the IC50 is 2 to 30 µM.
As for `CC(C)COC(=O)[C@@H]1[C@@H](O)CCN1c1cc(-n2ccnc2)c2ccc(Cl)c(Cl)c2n1` [I-602], the figure is 2 to 30 µM; as for `NC(=O)C[C@@H]1CCCN1c1cc(-n2ccnc2)c2ccc(Cl)c(Cl)c2n1` [I-603], below 2 µM; as for `O=c1nc([C@@H]2CCCN2c2cc(-n3ccnc3)c3ccc(Cl)c(Cl)c3n2)o[nH]1` [I-605, (S)-5-(1-(7,8-dichloro-4-(1H-imidazol-1-yl)quinolin-2-yl)pyrrolidin-2-yl)-1,2,4-oxadiazol-3(2H)-one], above 30 µM.
Consider `O=C(O)[C@@H]1C[C@@H](OC(=O)N2CCOCC2)CN1c1cc(-n2ccnc2)c2ccc(Cl)c(Cl)c2n1` [I-606, (2S,4R)-1-(7,8-dichloro-4-(1H-imidazol-1-yl)quinolin-2-yl)-4-((morpholine-4-carbonyl)oxy)pyrrolidine-2-carboxylic acid], for which the IC50 lay within 2 to 30 µM.
Turning to `O=C(O)CNC(=O)O[C@@H]1C[C@@H](C(=O)O)N(c2cc(-n3ccnc3)c3ccc(Cl)c(Cl)c3n2)C1` [I-607], the IC50 was below 2 µM.
The result for `NC(=O)CNC(=O)[C@@H]1CCCN1c1cc(-n2ccnc2)c2ccc(Cl)c(Cl)c2n1` [I-608] reads 2 to 30 µM; that for `COC(=O)c1cccc(S(=O)(=O)NCCN(C)c2cc(-n3ccnc3)c3ccc(Cl)c(Cl)c3n2)c1` [I-609], above 30 µM.
The result for `COCCS(=O)(=O)NCCN(C)c1cc(-n2ccnc2)c2ccc(Cl)c(Cl)c2n1` [I-610] reads below 2 µM.
For the compound `COC(=O)c1ccc(S(=O)(=O)NCCN(C)c2cc(-n3ccnc3)c3ccc(Cl)c(Cl)c3n2)cc1` [I-611], the IC50 was above 30 µM.
In the case of `CN(CCNS(=O)(=O)c1ccc(C(=O)O)cc1)c1cc(-n2ccnc2)c2ccc(Cl)c(Cl)c2n1` [I-612], the IC50 was 2 to 30 µM.
Consider `CN(CCNC(=O)CO)c1cc(-n2ccnc2)c2ccc(Cl)c(Cl)c2n1` [I-613], for which the IC50 was below 2 µM.
As for `CN(CCNC(=O)CCO)c1cc(-n2ccnc2)c2ccc(Cl)c(Cl)c2n1` [I-614], the figure is 2 to 30 µM; as for `CN(CCNC(=O)C1CCC(C(=O)O)C1)c1cc(-n2ccnc2)c2ccc(Cl)c(Cl)c2n1` (centres unmarked) [I-615], 2 to 30 µM.
The result for `CN(CCNC(=O)CCC(=O)O)c1cc(-n2ccnc2)c2ccc(Cl)c(Cl)c2n1` [I-616] reads below 2 µM; that for `CN(CCNS(=O)(=O)CCC(=O)O)c1cc(-n2ccnc2)c2ccc(Cl)c(Cl)c2n1` [I-617], below 2 µM.
As to `CN(CCNS(=O)(=O)CC(=O)O)c1cc(-n2ccnc2)c2ccc(Cl)c(Cl)c2n1` [I-618], the IC50 is below 2 µM.
As for `CN(CCNC(=O)c1cccc(O)c1)c1cc(-n2ccnc2)c2ccc(Cl)c(Cl)c2n1` [I-619], the figure is 2 to 30 µM.

(Values after patent US11873291B2, “Quinoline cGAS antagonist compounds” (ImmuneSensor Therapeutics, Inc., priority 2020, dated 2024).)
